According to ChEMBL document CHEMBL3991601, “The target landscape of clinical kinase drugs” (Science, 2017):
Calls of active or inactive are those of the source.

Experiments:
[1] = biological target: Cyclin-dependent kinase 6 (Homo sapiens, UniProt Q00534)
[2] = biological target: Serine/threonine-protein kinase/endoribonuclease IRE1 (Homo sapiens, UniProt O75460)
[3] = biological target: T1, Mitogen-activated protein kinase kinase kinase kinase 2 (Homo sapiens, UniProt Q12851)
T1 sequence (Q12851 whole entry): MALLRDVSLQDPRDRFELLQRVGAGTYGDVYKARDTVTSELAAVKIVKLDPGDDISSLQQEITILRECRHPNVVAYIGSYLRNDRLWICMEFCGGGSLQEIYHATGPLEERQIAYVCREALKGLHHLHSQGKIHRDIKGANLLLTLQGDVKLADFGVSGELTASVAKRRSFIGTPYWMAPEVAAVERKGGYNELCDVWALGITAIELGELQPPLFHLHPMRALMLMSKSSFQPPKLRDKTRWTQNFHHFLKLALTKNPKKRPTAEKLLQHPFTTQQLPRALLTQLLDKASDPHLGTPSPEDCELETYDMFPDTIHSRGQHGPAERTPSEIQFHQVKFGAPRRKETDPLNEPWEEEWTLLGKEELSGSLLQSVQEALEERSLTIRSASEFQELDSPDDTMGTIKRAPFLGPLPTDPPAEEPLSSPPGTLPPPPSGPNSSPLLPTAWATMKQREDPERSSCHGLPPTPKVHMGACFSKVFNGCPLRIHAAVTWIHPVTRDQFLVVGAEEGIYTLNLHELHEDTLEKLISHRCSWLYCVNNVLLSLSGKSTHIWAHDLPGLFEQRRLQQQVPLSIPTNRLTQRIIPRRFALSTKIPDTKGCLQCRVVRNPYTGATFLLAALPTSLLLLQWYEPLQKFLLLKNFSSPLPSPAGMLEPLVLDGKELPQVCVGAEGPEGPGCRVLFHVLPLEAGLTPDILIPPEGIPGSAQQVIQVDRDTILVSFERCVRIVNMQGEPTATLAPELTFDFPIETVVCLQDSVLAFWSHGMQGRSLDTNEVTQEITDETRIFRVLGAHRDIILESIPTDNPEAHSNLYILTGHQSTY

[4] = biological target: T2, Serine/threonine-protein kinase Nek1 (Homo sapiens, UniProt Q96PY6)
T2 sequence (Q96PY6 whole entry): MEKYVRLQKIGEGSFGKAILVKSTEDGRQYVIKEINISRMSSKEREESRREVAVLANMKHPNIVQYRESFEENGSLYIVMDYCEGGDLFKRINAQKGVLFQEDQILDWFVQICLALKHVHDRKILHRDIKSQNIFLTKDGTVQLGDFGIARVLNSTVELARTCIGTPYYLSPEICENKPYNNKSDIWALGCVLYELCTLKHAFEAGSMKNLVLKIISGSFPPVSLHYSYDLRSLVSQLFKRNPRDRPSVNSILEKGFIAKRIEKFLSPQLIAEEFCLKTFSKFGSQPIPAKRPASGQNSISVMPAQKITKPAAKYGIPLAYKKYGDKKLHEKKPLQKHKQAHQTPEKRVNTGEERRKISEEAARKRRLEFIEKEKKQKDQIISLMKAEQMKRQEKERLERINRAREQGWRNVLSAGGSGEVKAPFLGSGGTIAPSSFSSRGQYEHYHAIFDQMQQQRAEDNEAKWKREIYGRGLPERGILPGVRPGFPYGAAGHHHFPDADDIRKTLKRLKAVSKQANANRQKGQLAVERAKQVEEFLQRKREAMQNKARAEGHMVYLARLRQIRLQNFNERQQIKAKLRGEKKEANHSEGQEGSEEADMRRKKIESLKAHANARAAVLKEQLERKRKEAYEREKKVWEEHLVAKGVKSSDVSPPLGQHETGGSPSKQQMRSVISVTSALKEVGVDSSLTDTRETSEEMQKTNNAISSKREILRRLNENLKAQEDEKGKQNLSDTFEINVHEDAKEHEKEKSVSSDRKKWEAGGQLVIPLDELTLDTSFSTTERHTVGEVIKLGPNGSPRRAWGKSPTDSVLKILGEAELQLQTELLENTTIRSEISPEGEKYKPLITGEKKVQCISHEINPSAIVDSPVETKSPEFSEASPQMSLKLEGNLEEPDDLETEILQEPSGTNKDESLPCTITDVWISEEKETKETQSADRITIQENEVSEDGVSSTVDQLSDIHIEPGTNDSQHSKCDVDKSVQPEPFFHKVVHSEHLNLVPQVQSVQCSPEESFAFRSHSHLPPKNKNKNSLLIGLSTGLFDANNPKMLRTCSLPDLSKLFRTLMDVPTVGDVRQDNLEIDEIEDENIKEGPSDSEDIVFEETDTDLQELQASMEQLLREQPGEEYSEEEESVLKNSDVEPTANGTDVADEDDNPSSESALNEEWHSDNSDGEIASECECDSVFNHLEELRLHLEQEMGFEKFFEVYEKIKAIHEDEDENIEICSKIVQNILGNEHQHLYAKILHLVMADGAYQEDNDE

[5] = biological target: Obg-like ATPase 1 (Homo sapiens, UniProt Q9NTK5)
Sequence of Obg-like ATPase 1 (Q9NTK5 whole entry, looked up): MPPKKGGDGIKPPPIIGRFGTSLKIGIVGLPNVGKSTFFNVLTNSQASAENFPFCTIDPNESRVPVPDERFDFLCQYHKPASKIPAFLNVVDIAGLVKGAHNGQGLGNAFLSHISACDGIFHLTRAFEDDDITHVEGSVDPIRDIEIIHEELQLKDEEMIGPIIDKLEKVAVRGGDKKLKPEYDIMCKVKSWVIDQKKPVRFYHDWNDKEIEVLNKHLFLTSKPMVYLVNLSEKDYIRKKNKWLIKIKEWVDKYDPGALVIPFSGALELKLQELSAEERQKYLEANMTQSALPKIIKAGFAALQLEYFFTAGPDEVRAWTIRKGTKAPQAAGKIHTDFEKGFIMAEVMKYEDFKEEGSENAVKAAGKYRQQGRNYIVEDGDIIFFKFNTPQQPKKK

[6] = biological target: STE20-like serine/threonine-protein kinase (Homo sapiens, UniProt Q9H2G2)
Sequence of STE20-like serine/threonine-protein kinase (Q9H2G2 whole entry): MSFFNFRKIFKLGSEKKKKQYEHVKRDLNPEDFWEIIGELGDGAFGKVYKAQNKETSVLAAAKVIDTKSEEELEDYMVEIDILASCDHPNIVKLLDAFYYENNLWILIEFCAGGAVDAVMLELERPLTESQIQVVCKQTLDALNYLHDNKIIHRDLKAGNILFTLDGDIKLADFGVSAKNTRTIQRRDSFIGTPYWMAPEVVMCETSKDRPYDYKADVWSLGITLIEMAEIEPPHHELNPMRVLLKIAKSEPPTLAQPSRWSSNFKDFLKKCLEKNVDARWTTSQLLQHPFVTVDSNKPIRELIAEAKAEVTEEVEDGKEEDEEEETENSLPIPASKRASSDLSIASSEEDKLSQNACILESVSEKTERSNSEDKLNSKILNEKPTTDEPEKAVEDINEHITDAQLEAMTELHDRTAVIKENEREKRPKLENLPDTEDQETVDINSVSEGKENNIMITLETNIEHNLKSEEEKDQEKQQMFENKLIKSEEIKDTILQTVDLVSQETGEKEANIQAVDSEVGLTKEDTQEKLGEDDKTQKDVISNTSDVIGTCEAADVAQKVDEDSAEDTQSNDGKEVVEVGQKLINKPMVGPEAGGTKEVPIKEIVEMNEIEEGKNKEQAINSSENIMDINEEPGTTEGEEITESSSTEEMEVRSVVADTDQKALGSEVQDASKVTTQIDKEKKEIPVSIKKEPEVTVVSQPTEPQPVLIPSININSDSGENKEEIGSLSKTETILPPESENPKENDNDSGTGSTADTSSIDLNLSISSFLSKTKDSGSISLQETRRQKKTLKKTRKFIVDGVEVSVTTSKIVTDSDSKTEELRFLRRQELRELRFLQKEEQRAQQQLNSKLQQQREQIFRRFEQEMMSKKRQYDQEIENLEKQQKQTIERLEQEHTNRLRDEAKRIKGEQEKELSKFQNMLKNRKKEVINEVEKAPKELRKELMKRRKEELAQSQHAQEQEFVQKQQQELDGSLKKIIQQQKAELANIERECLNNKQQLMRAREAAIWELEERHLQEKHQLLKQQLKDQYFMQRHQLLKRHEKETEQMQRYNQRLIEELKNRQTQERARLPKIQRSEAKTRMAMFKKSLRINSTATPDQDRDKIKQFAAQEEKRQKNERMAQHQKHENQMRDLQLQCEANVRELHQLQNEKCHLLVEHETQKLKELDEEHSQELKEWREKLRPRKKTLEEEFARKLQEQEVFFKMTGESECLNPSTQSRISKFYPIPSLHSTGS

[7] = biological target: T3, Succinate--CoA ligase [ADP-forming] subunit beta, mitochondrial (Homo sapiens, UniProt Q9P2R7)
T3 sequence (Q9P2R7 whole entry): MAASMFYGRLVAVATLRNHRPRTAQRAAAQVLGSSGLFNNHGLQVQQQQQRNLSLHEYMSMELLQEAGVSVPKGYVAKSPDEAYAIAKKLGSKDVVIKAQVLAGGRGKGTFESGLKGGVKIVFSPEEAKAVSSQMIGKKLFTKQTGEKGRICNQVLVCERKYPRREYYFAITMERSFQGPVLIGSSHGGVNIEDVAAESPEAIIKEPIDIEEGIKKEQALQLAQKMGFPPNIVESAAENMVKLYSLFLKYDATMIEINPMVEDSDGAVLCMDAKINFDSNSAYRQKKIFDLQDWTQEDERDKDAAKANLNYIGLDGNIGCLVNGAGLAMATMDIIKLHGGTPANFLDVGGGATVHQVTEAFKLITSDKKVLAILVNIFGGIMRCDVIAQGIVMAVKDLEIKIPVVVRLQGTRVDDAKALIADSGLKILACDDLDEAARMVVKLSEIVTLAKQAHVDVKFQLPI

[8] = biological target: T4, Rab-like protein 3 (Homo sapiens, UniProt Q5HYI8)
T4 sequence (Q5HYI8 whole entry): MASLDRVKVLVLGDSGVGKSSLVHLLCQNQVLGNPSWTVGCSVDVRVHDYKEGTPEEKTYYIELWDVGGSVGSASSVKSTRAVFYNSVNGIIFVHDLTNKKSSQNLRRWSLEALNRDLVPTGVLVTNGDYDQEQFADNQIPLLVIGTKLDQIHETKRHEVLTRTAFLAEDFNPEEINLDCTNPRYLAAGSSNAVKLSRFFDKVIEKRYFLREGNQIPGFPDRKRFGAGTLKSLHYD
Note: in the data inactive means no Kd found up to 30 µM.

Sequence of Serine/threonine-protein kinase/endoribonuclease IRE1 (O75460 whole entry): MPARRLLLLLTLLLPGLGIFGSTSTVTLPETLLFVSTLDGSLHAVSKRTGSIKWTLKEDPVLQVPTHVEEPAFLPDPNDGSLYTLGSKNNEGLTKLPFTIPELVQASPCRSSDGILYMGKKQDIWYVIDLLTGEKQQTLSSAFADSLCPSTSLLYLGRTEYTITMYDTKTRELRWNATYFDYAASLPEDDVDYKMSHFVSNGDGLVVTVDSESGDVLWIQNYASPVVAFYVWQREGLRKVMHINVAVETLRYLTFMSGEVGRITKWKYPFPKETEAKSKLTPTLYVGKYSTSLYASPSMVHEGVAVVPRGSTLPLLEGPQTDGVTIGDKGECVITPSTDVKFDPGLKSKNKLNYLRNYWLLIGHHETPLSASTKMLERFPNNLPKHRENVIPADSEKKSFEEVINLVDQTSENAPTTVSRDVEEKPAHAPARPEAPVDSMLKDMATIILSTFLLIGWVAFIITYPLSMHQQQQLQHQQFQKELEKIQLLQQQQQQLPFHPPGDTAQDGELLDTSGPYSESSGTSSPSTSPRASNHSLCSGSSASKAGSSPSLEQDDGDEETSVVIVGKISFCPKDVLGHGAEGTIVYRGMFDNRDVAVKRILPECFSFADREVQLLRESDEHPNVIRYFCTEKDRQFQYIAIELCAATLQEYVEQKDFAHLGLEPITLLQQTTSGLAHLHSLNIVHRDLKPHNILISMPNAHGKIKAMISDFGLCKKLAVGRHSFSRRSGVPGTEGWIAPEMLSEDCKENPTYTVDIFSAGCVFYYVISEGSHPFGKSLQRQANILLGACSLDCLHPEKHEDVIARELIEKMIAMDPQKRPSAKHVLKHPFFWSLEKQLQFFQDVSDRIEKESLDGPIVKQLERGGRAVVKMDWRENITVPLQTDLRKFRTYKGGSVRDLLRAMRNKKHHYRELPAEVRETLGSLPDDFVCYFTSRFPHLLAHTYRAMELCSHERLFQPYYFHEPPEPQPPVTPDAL
Sequence of Cyclin-dependent kinase 6 (Q00534 whole entry): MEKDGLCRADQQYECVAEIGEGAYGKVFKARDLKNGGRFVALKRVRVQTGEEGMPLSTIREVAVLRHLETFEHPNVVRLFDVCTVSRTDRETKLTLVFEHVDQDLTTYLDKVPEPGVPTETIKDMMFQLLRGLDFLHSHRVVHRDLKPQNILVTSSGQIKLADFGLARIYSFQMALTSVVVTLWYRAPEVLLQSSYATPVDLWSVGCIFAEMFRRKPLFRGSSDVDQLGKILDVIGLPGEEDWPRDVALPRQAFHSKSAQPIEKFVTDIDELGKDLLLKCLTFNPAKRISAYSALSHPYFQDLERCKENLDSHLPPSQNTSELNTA

SMILES	Kd [1]	Kd [2]	Kd [3]	Kd [4]	Kd [5]	Kd [6]	Kd [7]	Kd [8]
Cc1c(NC(=O)OC[C@@H]2COCCN2)cn2ncnc(Nc3ccc4c(cnn4Cc4cccc(F)c4)c3)c12 [AC-480]	> 30 µM (inactive)	> 30 µM (inactive)	> 30 µM (inactive)	> 30 µM (inactive)	> 30 µM (inactive)	> 30 µM (inactive)	> 30 µM (inactive)	–
C=CCn1c(=O)c2cnc(Nc3ccc(N4CCN(C)CC4)cc3)nc2n1-c1cccc(C(C)(C)O)n1 [ADAVOSERTIB]	> 30 µM (inactive)	> 30 µM (inactive)	–	> 30 µM (inactive)	> 30 µM (inactive)	> 30 µM (inactive)	> 30 µM (inactive)	> 30 µM (inactive)
NC[C@@](O)(c1ccc(Cl)cc1)c1ccc(-c2cn[nH]c2)cc1 [AT-13148]	> 30 µM (inactive)	> 30 µM (inactive)	> 30 µM (inactive)	> 30 µM (inactive)	> 30 µM (inactive)	> 30 µM (inactive)	> 30 µM (inactive)	–
Cc1cc(Nc2nc(N[C@@H](C)c3ncc(F)cn3)ncc2Cl)n[nH]1 [AZD-1480]	> 30 µM (inactive)	> 30 µM (inactive)	> 30 µM (inactive)	> 30 µM (inactive)	> 30 µM (inactive)	0.686 µM (active)	–	> 30 µM (inactive)
CCN(CCCOc1ccc2c(Nc3cc(CC(=O)Nc4cccc(F)c4)n[nH]3)ncnc2c1)CCOP(=O)(O)O [BARASERTIB]	> 30 µM (inactive)	> 30 µM (inactive)	–	> 30 µM (inactive)	> 30 µM (inactive)	> 30 µM (inactive)	> 30 µM (inactive)	> 30 µM (inactive)
COc1ccc(-c2ccc3ncc4c(c3c2)n(-c2ccc(N3CCNCC3)c(C(F)(F)F)c2)c(=O)n4C)cn1 [BGT-226 FREE BASE]	> 30 µM (inactive)	> 30 µM (inactive)	> 30 µM (inactive)	> 30 µM (inactive)	> 30 µM (inactive)	> 30 µM (inactive)	> 30 µM (inactive)	–
CCOc1ccn(-c2ccc(F)cc2)c(=O)c1C(=O)Nc1ccc(Oc2ccnc(N)c2Cl)c(F)c1 [BMS-777607]	> 30 µM (inactive)	> 30 µM (inactive)	–	> 30 µM (inactive)	> 30 µM (inactive)	> 30 µM (inactive)	> 30 µM (inactive)	> 30 µM (inactive)
c1cc(OCCN2CCCCC2)cc(-c2n[nH]c3ccc(-c4nc[nH]n4)cc23)c1 [CC-401]	> 30 µM (inactive)	> 30 µM (inactive)	> 30 µM (inactive)	> 30 µM (inactive)	> 30 µM (inactive)	> 30 µM (inactive)	–	> 30 µM (inactive)
Cn1c(=O)n(-c2ccc(C(C)(C)C#N)cc2)c2c3cc(-c4cnc5ccccc5c4)ccc3ncc21 [DACTOLISIB]	> 30 µM (inactive)	> 30 µM (inactive)	–	> 30 µM (inactive)	> 30 µM (inactive)	> 30 µM (inactive)	> 30 µM (inactive)	> 30 µM (inactive)
N#CCNC(=O)c1ccc(-c2ccnc(Nc3ccc(N4CCOCC4)cc3)n2)cc1 [MOMELOTINIB]	3.36 µM	> 30 µM (inactive)	> 30 µM (inactive)	> 30 µM (inactive)	> 30 µM (inactive)	–	> 30 µM (inactive)	> 30 µM (inactive)
CC1(C)CNc2cc(NC(=O)c3cccnc3NCc3ccncc3)ccc21 [MOTESANIB]	> 30 µM (inactive)	–	–	–	> 30 µM (inactive)	> 30 µM (inactive)	> 30 µM (inactive)	> 30 µM (inactive)
C=CC(=O)Nc1cc(Nc2nccc(-c3cn(C)c4ccccc34)n2)c(OC)cc1N(C)CCN(C)C [OSIMERTINIB]	> 30 µM (inactive)	> 30 µM (inactive)	> 30 µM (inactive)	> 30 µM (inactive)	> 30 µM (inactive)	> 30 µM (inactive)	> 30 µM (inactive)	–
CC(C)CC(=O)Nc1[nH]nc2c1CN(C(=O)C1CCN(C)CC1)C2(C)C [PHA-793887]	> 30 µM (inactive)	> 30 µM (inactive)	> 30 µM (inactive)	> 30 µM (inactive)	> 30 µM (inactive)	> 30 µM (inactive)	> 30 µM (inactive)	–
